Tested on: B16-F10 melanoma tumors
Experiment: Treatment of B16-F10 melanoma tumors in C57BL/6 mice
Type: in vivo, mouse
Protocol: Injection of B16-F10 cells subcutaneously in C57BL/6J mice to generate the melanoma tumors. The B16-F10 cells were cultured as described before. Cells were harvested from sub-confluent plates, ˜90%, and fresh media was added to the cells the day before harvesting. The cells were harvested using 0.05% trypsin-EDTA (Gibco, 25-300-054). The harvested cells were re-dispersed in DMEM media without supplements at 1×10^6 cells mL^−1. The cell suspension was kept in ice. Then 100 μL of cells were injected per mouse (this was 100,000 cells per mouse) subcutaneously in the right flank of a 7-8-week-old female mouse (C57BL/6J), in which the hair in the right flank was previously depilated using a shaver. […] Starting at day 12 the tumors were measured using a caliper. […] The volume of the tumor was calculated as: (½)×length×width×height. When the height was not possible to measure in the case of the tumors which were too small (usually <100 mm^3), then the tumor volume was calculated as: (½)×length×width^2. […]
Treatment of B16-F10 tumors with Cy7.5-amine and NIR 730 nm light. […] The light intensity was measured using an Optical Power Meter from Thorlabs, sensor model S302C and console model PM100D. While under light treatment the temperature at the tumor area was measured using an IR thermal camera (Model: Compact Seek Thermal for Android. Seek Thermal, Inc. Santa Barbara, CA). […]

CN1/C(=C\C=C2C=C(/C=C/C3=[N+](CCCCCC(=O)NCCCCCCN)c4ccc5ccccc5c4C3(C)C)CCC\2)C(C)(C)c2c1ccc1ccccc21 [Cy7.5-amine]
size of the B16-F10 tumors (8 μg in 50 μL PBS intratumorally, 730 nm LED at for 5 min): significantly reduced
temperature increase of B16-F10 tumors under light treatment (Cy7.5-amine with light, for 5 min): ~5 °C

Reference: patent US20250170098A1, “MOLECULAR JACKHAMMER FOR MECHANICAL DESTRUCTION OF CELLULAR STRUCTURE” (William Marsh Rice University, priority 2022, published 2025)
